# Reference: article PMC5513037, “Examining the influence of specificity ligands and ATP-competitive ligands on the overall effectiveness of bivalent kinase inhibitors” (Proteome Science, 2017)
# Assays:
# AAK1 = biological target: T1, AAK1 (Homo sapiens, UniProt Q2M2I8); assay: KAM-matrix competition in K562 lysate; type: binding
# T1 construct: endogenous in cells; host or cells: K562
# Description: (§1) For synthesis of KAM-derivatized resin, packed NHS-activated sepharose 4 fast flow resin (volume = 2 mL; GE Healthcare) was washed with anhydrous DMSO (3 × 10 mL). To the washed NHS-activated sepharose resin was added 0.5 mM KAM in anhydrous DMSO (8 mL; 2 μmol compound/mL of resin), followed by the addition of triethylamine (30 μL). The reaction mixture was vortexed to mix and pelleted by centrifugation (100 x g, 2 min). An aliquot of the supernatant (50 μL) was saved for LC/MS analysis. The reaction mixture was allowed incubate overnight at room temp with end-over-end rotating agitation. On the following day, the reaction mixture was pelleted by centrifugation (100 x g, 2 min). An aliquot of the supernatant (50 μL) was saved for LC/MS analysis. […] 2-(2-Aminoethoxy)ethanol (100 μL; Sigma-Aldrich) was added to the reaction mixture, vortexed, and incubate overnight at room temp with end-over-end agitation. The KAM-derivatized resin was then washed with anhydrous DMSO (3 × 10 mL) and 95% EtOH (3 × 10 mL).
# (§2) Data were visualized for further analysis using Spotfire DXP.
# GSK3B = biological target: T2, GSK3B (Homo sapiens, UniProt P49841); assay: KAM-matrix competition in K562 lysate; type: binding
# T2 construct: endogenous in cells; host or cells: K562
# Description: as §1, §2
# RPS6KC1 = biological target: T3, RPS6KC1 (Homo sapiens, UniProt Q96S38); assay: KAM-matrix competition in K562 lysate; type: binding;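 on 0.001 uM KAM: median log10 fold change of treatment over DMSO control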;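 on 0.1 uM KAM: median log10 fold change of treatment over DMSO control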;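 on 1 uM KAM: median log10 fold change of treatment over DMSO control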;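 on 10 uM KAM: median log10 fold change of treatment over DMSO control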
# T3 construct: endogenous in cells; host or cells: K562 cell lysate
# T3 sequence (Q96S38 1-1066): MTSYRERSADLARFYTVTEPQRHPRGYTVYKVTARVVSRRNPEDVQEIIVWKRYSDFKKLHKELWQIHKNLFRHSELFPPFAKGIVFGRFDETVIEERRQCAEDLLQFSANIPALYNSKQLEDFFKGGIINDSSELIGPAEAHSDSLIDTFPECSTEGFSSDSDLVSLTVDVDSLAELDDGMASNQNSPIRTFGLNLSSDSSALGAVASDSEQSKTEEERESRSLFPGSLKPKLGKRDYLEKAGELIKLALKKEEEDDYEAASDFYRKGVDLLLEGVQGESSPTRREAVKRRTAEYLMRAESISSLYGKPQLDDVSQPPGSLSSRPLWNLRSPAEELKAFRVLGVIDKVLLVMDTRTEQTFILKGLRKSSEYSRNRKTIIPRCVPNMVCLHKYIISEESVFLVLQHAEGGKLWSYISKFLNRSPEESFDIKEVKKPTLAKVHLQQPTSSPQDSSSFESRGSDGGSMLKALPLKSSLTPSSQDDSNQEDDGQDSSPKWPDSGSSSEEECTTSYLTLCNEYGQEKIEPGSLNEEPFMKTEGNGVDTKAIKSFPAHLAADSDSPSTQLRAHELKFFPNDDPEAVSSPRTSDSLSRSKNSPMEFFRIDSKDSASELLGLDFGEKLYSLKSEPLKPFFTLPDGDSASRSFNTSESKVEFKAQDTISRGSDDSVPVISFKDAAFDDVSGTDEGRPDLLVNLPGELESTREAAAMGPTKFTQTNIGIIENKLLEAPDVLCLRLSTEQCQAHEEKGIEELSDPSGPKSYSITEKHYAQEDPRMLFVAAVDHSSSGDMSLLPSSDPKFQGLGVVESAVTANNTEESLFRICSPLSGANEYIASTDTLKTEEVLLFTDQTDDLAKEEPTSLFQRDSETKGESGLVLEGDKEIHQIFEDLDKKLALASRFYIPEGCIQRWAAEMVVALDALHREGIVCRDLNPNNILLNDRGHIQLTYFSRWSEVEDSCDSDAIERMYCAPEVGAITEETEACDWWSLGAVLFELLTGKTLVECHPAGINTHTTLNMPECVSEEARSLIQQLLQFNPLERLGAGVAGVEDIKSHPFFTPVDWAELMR
# Description: Supplement 12953_2017_125_MOESM1_ESM.zip/MS_Supp Info.xlsx, sheet "KAM" | column: 10 uM KAM; 1 uM KAM; 0.1 uM KAM; 0.001 uM KAM; RB50
# PSKH1 = PSKH1 (Homo sapiens, UniProt P11801); assay: biochemical
# Sequence of PSKH1 (P11801 whole entry): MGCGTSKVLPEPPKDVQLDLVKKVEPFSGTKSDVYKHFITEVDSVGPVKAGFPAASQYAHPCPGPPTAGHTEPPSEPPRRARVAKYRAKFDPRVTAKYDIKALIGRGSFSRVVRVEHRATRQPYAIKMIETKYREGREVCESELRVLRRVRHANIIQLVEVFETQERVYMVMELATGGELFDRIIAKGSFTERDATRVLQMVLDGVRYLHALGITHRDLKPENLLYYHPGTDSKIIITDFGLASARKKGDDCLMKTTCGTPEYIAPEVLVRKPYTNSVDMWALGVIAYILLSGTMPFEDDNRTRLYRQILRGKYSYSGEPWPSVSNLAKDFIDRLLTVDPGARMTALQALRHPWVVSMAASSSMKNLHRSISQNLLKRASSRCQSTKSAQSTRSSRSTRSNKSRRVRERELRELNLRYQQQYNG
# T2 sequence (P49841 whole entry): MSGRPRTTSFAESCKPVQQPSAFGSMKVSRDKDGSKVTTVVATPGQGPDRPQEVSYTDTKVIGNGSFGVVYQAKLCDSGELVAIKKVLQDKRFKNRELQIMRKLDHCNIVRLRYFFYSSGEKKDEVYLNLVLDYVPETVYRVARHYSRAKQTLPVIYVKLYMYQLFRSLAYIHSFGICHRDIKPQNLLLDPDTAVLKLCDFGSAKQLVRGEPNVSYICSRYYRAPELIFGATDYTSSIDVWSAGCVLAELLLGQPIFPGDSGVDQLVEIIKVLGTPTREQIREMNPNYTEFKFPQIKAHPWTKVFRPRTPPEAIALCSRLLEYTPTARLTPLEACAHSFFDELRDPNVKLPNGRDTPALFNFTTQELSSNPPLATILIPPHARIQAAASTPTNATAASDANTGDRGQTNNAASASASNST
# T1 sequence (Q2M2I8 whole entry): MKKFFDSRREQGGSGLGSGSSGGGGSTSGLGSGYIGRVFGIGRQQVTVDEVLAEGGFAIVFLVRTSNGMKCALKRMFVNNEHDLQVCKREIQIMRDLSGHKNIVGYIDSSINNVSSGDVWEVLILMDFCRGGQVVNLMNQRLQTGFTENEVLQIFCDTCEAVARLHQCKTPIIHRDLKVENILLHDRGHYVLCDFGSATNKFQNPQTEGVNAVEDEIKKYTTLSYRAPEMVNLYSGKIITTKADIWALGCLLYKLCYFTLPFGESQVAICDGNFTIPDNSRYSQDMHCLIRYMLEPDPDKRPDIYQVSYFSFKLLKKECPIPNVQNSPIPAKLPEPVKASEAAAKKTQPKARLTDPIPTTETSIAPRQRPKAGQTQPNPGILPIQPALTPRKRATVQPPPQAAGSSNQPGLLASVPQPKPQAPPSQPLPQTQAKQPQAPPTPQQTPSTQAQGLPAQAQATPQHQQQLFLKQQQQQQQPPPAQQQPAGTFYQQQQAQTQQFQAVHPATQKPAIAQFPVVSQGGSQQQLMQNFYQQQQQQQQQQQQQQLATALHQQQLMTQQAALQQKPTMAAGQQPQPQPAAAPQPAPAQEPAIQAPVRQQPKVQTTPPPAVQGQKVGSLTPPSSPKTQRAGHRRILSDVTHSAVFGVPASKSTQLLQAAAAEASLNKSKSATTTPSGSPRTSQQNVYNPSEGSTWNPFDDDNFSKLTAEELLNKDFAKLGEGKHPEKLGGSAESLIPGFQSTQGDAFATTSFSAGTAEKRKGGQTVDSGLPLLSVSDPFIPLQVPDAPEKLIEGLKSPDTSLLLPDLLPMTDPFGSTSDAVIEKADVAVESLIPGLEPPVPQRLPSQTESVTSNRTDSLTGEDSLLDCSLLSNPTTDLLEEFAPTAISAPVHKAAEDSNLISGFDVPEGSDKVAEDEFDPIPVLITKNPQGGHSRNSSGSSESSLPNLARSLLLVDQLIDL
smiles,measurement,setting,value
N#CCc1ccc(Nc2nc(NCCCN)cc(Nc3cc(C4CC4)[nH]n3)n2)cc1 [KAM],median Log10 fold change,AAK1; 0.001 uM KAM,-0.03432
same,median Log10 fold change,AAK1; 0.01 uM KAM,-0.41
same,median Log10 fold change,AAK1; 0.1 uM KAM,-0.6175
same,median Log10 fold change,AAK1; 1 uM KAM,-0.6778
same,median Log10 fold change,AAK1; 10 uM KAM,-0.7219
same,IC50,"AAK1; AAK1, KAM-based affinity matrix, K562 lysates, read-out: RB50 (the source's name)",8 nM
same,median Log10 fold change,GSK3B; 0.001 uM KAM,0.01354
same,median Log10 fold change,GSK3B; 0.01 uM KAM,-0.16
same,median Log10 fold change,GSK3B; 0.1 uM KAM,-0.4584
same,median Log10 fold change,GSK3B; 1 uM KAM,-0.606
same,median Log10 fold change,GSK3B; 10 uM KAM,-0.568
same,IC50,"GSK3B; GSK3B, KAM-based affinity matrix, K562 lysates, read-out: RB50 (the source's name)",45 nM
same,IC50,"RPS6KC1; KAM 0.001-10 uM, read-out: RB50 (the source's name)",> 10000 nM
same,0.001 uM KAM,RPS6KC1; relative to 0 uM KAM = 0,-0.005381
same,0.1 uM KAM,RPS6KC1; relative to 0 uM KAM = 0,-0.07914
same,1 uM KAM,RPS6KC1; relative to 0 uM KAM = 0,-0.09953
same,10 uM KAM,RPS6KC1; relative to 0 uM KAM = 0,-0.2964
Cc1ccc(NC(=O)c2ccc(CN3CCN(C)CC3)cc2)cc1Nc1nccc(-c2cccnc2)n1 [Imatinib],IC50,PSKH1,> 10000 nM
